Assay results as given in patent US10704056B2, “Constitutively active ABA receptor mutants” (The Regents of the University of California, priority 2011, dated 2020).

Key:
HAB1 = target: T1, HAB1 (Arabidopsis thaliana, UniProt Q9CAJ0); test: Yeast two-hybrid PYR1 mutant-HAB1 interaction assay (X-gal staining) in the absence of ABA; format: cell-based; details: no ABA
T1 construct: expressed in transfected cells; host or cells: S. cerevisiae strain Y190
T1 sequence (Q9CAJ0 1-511): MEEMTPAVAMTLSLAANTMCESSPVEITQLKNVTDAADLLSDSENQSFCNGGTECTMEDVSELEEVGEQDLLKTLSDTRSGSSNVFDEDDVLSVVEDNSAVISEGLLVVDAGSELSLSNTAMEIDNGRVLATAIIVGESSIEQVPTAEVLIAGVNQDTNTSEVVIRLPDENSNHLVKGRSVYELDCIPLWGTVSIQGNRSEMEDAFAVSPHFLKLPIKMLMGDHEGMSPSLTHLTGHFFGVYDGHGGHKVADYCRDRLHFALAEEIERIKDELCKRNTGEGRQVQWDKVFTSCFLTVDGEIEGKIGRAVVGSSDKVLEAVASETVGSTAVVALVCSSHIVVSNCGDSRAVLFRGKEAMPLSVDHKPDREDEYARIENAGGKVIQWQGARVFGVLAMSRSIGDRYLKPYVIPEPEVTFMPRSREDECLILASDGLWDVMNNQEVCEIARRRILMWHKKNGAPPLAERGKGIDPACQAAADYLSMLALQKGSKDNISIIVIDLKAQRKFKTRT
Excerpt: To define sites that can be mutated to improve interactions between PYR/PYL receptors and PP2Cs, we conducted saturation mutagenesis on 39 residues in PYR1 that normally contact ABA (i.e., are within the ligand-binding pocket of PYR1) and/or PP2Cs (i.e., are within the PP2C binding interface). All 741 single-mutant variants possible at these functionally critical locations were constructed and then assayed for PP2C interactions using a yeast two-hybrid based assay. Saturation mutagenesis is a method that involves the construction of all possible amino acid variants at a given site (i.e., the generation of all 19 substitution mutants per site). We focused mutagenesis efforts on PYR1 because it is a well-characterized member of the PYR/PYL receptor family and has extensive structural data on which to guide mutagenesis studies, although it should be noted that the sites targeted display high sequence conservation among the PYR/PYL receptors (FIG. 1). Moreover, PYR1 is well suited for functional studies because its low basal activity allows its activation status to be studied using a yeast-based two-hybrid assay in which wild-type PYR1 will only bind to the PP2C HAB1 (or other PP2Cs) when the appropriate yeast cells are grown in the presence of ABA. […]

PYL5 = target: T2, PYL5 (Arabidopsis thaliana, UniProt Q9FLB1); details: cited from earlier work
T2 sequence (Q9FLB1 1-203): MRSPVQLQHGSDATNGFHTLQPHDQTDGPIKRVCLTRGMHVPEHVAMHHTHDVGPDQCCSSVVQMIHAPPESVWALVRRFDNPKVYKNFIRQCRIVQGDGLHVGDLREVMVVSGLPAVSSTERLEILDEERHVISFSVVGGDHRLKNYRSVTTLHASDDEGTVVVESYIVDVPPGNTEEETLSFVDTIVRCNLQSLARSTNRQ

PYL1 = target: T3, PYL1 (Arabidopsis thaliana, UniProt Q8VZS8); details: cited from earlier work
T3 sequence (Q8VZS8 1-221): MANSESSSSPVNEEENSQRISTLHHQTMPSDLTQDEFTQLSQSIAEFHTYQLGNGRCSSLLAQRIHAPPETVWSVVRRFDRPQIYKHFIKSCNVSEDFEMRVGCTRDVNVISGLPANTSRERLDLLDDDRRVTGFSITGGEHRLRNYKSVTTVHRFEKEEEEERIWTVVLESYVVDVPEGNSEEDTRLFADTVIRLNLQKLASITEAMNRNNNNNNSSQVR

[1] = test system: ABA-responsive gene transcription; details: in vivo; cited from earlier work
PYL2 = target: T4, PYL2 (Arabidopsis thaliana, UniProt O80992); details: cited from earlier work
T4 sequence (O80992 1-190): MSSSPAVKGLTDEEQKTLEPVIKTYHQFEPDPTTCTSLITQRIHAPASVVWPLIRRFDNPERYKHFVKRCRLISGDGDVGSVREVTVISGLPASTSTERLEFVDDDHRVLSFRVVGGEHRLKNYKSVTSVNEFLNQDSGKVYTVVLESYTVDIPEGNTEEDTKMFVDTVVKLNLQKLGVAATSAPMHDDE

PYR1 [2] = target: T5, PYR1 (Arabidopsis thaliana, UniProt O49686); details: cited from earlier work
T5 sequence (O49686 1-191): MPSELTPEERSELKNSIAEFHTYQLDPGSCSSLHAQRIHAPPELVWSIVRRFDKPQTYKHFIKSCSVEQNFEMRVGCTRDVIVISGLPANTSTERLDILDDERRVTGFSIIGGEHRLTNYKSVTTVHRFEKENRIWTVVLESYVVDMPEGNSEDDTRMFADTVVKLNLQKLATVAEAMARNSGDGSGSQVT

PYR1 [3] = target: T6, PYR1 (Arabidopsis thaliana, UniProt O49686); test: Yeast two-hybrid wild-type PYR1-HAB1 interaction with added ABA; format: cell-based; details: wild-type PYR1, 10 μM ABA
T6 construct: expressed in transfected cells; host or cells: S. cerevisiae strain Y190
T6 sequence (O49686 1-191): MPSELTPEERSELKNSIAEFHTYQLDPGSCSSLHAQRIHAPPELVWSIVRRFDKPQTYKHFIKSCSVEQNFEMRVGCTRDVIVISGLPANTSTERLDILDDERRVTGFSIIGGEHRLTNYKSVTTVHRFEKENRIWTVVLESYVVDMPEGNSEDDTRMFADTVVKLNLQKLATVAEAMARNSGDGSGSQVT
T6 sequence (Q9CAJ0 23-511 partner): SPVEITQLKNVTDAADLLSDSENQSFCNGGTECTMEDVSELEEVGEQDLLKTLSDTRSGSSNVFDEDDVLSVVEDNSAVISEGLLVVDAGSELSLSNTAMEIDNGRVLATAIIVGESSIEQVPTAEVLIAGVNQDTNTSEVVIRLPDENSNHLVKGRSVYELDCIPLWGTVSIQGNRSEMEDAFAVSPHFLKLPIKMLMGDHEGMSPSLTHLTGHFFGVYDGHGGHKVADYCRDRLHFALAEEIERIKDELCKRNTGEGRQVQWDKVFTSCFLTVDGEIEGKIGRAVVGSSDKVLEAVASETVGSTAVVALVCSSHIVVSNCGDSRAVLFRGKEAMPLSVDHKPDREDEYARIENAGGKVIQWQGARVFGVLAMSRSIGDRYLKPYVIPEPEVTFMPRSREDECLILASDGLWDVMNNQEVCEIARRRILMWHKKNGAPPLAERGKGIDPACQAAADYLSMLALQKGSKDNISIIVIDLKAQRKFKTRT
Experimental: 29 of 741 PYR1 mutants constructed, located in 10 different residues, increase the interaction between PYR1 and HAB1 in the absence of ABA, as measured using the yeast two hybrid assay (upper left panel). […] Each graph includes control wild-type PYR1 protein tested in the absence (diamonds) and presence (squares) of 10 μM ABA. Specific mutant proteins (triangles) were tested in the absence of ABA. […] Plotted in each graph is PP2C activity, expressed as % of control, which is the PP2C activity measured in the absence of ABA or receptor protein.
To define sites that can be mutated to improve interactions between PYR/PYL receptors and PP2Cs, we conducted saturation mutagenesis on 39 residues in PYR1 that normally contact ABA (i.e., are within the ligand-binding pocket of PYR1) and/or PP2Cs (i.e., are within the PP2C binding interface). All 741 single-mutant variants possible at these functionally critical locations were constructed and then assayed for PP2C interactions using a yeast two-hybrid based assay. Saturation mutagenesis is a method that involves the construction of all possible amino acid variants at a given site (i.e., the generation of all 19 substitution mutants per site). […]

aba2-1 mutant seeds = test: Germination of aba2-1 background seeds on paclobutrazol or NaCl; format: in vivo, Arabidopsis; details: 35S-driven transgene, germination 72 hours
Excerpt: As a further test of the ability of PYL2^CA3 to activate ABA signaling in vivo, we examined the ability of this allele to revert phenotypes caused by ABA deficiency, reasoning that effective activation of the ABA pathway should suppress phenotypes observed in the aba2 mutant. […] To test this, we examined the germination of various genotypes on paclobutrazol, an inhibitor of GA biosynthesis. Wild-type seed germination is blocked by paclobutrazol treatment but aba2 mutants germinate due to defects in ABA-induced seed dormancy. We also examined the germination of various genotypes in the presence of NaCl, which, like paclobutrazole, inhibits seed germination in an ABA- and aba2-dependent manner (Gonzalez-Guzman M. et al. (2002) Plant Cell 14(8):1833-1846; Leon-Kloosterziel K M, et al. (1996) Plant J 10 (4):655-661). […] Thus, expression of PYL2^CA3 in developing seeds is sufficient to activate an ABA-dependent physiological process despite the depleted ABA levels present in the aba2 background.
Germination tests on paclobutrazol (Wako Chemicals, Japan) and NaCl were conducted as following. Columbia, aba2-1, aba2-1; 35S::GFP-PYL2 and aba2-1; 35S::GFP-PYL2″^3 seeds were surface sterilized and plated onto ⅓ MS agar media containing 25, 50 or 100 μM paclobutrazol or 0, 50, 200, 250 mM NaCl. Control wells contained ⅓ MS agar and 0.1% DMSO, the carrier solvent for paclobutrazol. The seeds were stratified for four days in darkness and then transferred to continuous illumination at room temperature (23° C.). Germination was assayed after 72 hours; seeds showing radicals at least ½ seed length or greater were scored as positive. Each experiment was performed in triplicate; experiments were performed on seeds that were ˜6-months post-harvest.

Columbia seeds = test: Seed dormancy / germination assay of 35S-driven transgenic lines, stratified vs unstratified; format: in vivo, Arabidopsis; details: 35S-driven overexpression in wild-type Columbia background
Experimental: To investigate the effects of the PYL2^CA3 allele, we performed a number of physiological assays on wild-type and aba2-1 genotypes. Columbia (Col), 35S::PYL2, and 35S::PYL2^CA3 seed samples were divided into two portions; one portion was stratified on ⅓ MS plates for 6 days at 4° C. and the second portion was plated six days later ⅓ MS plates. Both samples were the transferred to room temperature (23° C.) and incubated in darkness. […] Each experiment was performed in triplicate and each point plotted represents the average of tests conducted using 40 to 70 seeds. […] Thus, overexpression of PYL2^CA3 activates the ABA-regulated seed dormancy pathway.
In order to assay dormancy of seeds for Columbia, 35S::GFP-PYL2, and 35S::GFP-PYL2^CA3 were divided into two portions and surface sterilized using chlorine gas (prepared in situ using bleach and HCl). One portion was stratified on ⅓ MS agar plates for 6 days at 4° C. in darkness and the second portion, which was maintained at room temperature, was seeded six days later on the ⅓ MS agar plates; both samples were transferred to a 23° C. light-tight growth chamber and germination scored at 24 hour periods. The homozygous 35S::GFP-PYL2 and 35S::GFP-[…] seeds used in these experiments were ˜5- and ˜6-months post-harvest respectively at the time of the experiment shown in FIG. 12.

With “PYR1: wild-type Arabidopsis ABA receptor PYR1 (SEQ ID NO:1)” as the molecule, how does the “PYR1-HAB1 interaction in the absence of added ABA” value (HAB1) read?
The value was “does not bind HAB1”.

For `O=S(=O)(NCc1ccccn1)c1ccc(Br)c2ccccc12` [pyrabactin], which “activity on PYL5” value (PYL5) is on record?
The value was “weak partial-agonist/antagonist activity”.

And the “agonist activity on PYL1” value (PYL1)?
Its value is “strong agonist activity”.

And the “ABA-responsive gene transcription in seeds” value [1]?
Its value is “essentially activates the full complement of ABA-responsive gene transcription in seeds”.

What about the “activity on PYL2” value (PYL2) of the same molecule?
The value was “weak partial-agonist/antagonist activity”.

And the “agonist activity on PYR1” value (PYR1 [2])?
Its value is “strong agonist activity”.

For `CC1=CC(=O)CC(C)(C)[C@@]1(O)/C=C/C(C)=C\C(=O)O` [ABA, Abscisic acid], which “interaction between PYR1 and HAB1” value (PYR1 [3]) is on record?
Its value is “promotes a strong interaction”.

B1: PYL2: wild-type ABA receptor PYL2 (SEQ ID NO:3), overexpressed as control (protein, listed as Arabidopsis thaliana)
chain: MSSSPAVKGLTDEEQKTLEPVIKTYHQFEPDPTTCTSLITQRIHAPASVVWPLIRRFDNPERYKHFVKRCRLISGDGDVGSVREVTVISGLPASTSTERLEFVDDDHRVLSFRVVGGEHRLKNYKSVTSVNEFLNQDSGKVYTVVLESYTVDIPEGNTEEDTKMFVDTVVKLNLQKLGVAATSAPMHDDE
modifications: thale cress PYR/PYL receptor, abscisic acid receptor PYL2, PYR1-like protein 2 (PYL2), ABI1-binding protein 6 (ABIP6), regulatory components of ABA receptor 14 (RCAR14), Bet v I allergen family protein, At2g26040, T19L18.15
Which results are given for B1?
NaCl resistance of aba2 mutant seed germination (aba2-1 mutant seeds): unable to suppress; paclobutrazol resistance of aba2 mutant seed germination (aba2-1 mutant seeds): unable to suppress; seed hyperdormancy (stratification dependent germination) (Columbia seeds): not
